The values below come from patent US9051275B2, “4-[-2-[[5-methyl-1-(2-naphtalenyl)-1H-pyrazol-3-yl]oxy]ethyl]morpholine hydrochloride polymorphs and solvates” (Laboratories Del Dr. Esteve, S.A., priority 2010, dated 2015).

For one data set, the target named is sigma 2 (σ-2) site (Homo sapiens, UniProt Q5BJF2). The following applies: cited from earlier work.
In another data set the target is sigma 1 (σ-1) site (Homo sapiens, UniProt Q99720). To be noted: cited from earlier work.
A short description of data set [1]: Descriptive solubility of the P027 compound. Type of data set: physicochemical.
Data set [2] is described as follows: Dissolution and absorption profile in vivo compared with the related base. To be noted: compared with its related base.
Data set [3] is described as follows: Solubility of P027 in different solvents at room temperature (visual, successive solvent additions). It counts as physicochemical. To be noted: thermodynamic from solid. The method, then: In order to plan the crystallization screening, […] table 6 using the following methodology (table 7): […] solvent and successive additions (initially 0.2 mL and finally 0.5 mL) of solvent until the solid was completely dissolved or up to a maximum of 8 mL were performed. After each solvent addition the suspension was vigorously stirred for 10-15 minutes and visually inspected to determine if the solid was completely dissolved.

For data set [4] the following is noted: treatment and prevention of chronic and acute pain, particularly neuropathic pain; cited from earlier work.
Another data set deals with sigma-1 (σ-1) receptor (Homo sapiens, UniProt Q99720). To be noted: cited from earlier work.
Chain of sigma-1 (σ-1) receptor (Q99720 whole entry): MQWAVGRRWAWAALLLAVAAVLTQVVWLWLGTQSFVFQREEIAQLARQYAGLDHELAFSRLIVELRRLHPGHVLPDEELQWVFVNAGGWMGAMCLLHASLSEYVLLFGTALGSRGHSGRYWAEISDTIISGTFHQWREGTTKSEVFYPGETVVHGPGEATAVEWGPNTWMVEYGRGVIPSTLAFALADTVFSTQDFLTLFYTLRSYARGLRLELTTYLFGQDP
For data set [5] the following is noted: drying for 4 hours at 60° C., 80° C. and 100° C.
Data set [6] is described as follows: Pressure: tablets of P027 phase I in a hydraulic press, PXRD analysis. Type of data set: physicochemical. The procedure:
Tablets of P027 phase I were prepared in a hydraulic press at three different pressures (5, 7.5 and 10 tons) for three different times (5, 30 and 90 minutes) [see Table 24].
The solid samples obtained were analyzed by PXRD. […] FIG. 19 illustrates the PXRD pattern of a phase I form obtained by applying a pressure of […] to P027 for 90 minutes.

Data set [7] is described as follows: Grinding of P027 phase I with catalytic solvent in a ball mill, PXRD analysis. Type of data set: physicochemical. The procedure:
Approximately 40 mg of P027 phase I were transferred to a ball mill container together with catalytic quantities of the relevant solvent (three drops). The P027 phase I and the solvent were grinded at a maximum frequency of 30 s^−1 for 30 minutes (see Table 23).
The solid samples obtained were analyzed by PXRD. […] FIG. 18 illustrates the PXRD pattern of a phase I form obtained from grinding P027 together with dichloromethane.

Data set [8] in a line: 1H NMR check of the stability of the salt in phase I samples. Type of data set: physicochemical. The following applies: several samples of phase I from different crystallizations. The procedure: In addition, several samples of phase I were analyzed by ^1H NMR in order to check the stability of the salt.

Chain of sigma 1 (σ-1) site (Q99720 whole entry): as above
Chain of sigma 2 (σ-2) site (Q5BJF2 whole entry): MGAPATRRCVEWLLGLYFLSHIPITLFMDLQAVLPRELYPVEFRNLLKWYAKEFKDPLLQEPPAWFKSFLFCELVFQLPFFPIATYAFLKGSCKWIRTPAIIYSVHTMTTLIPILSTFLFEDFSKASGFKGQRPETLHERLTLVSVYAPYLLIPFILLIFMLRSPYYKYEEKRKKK

Consider SKF 10047, for which the “affinity for the sigma 2 (σ-2) site” value on sigma 2 (σ-2) site was “micromolar”. Besides, at sigma 1 (σ-1) site, the “affinity for the sigma 1 (σ-1) site” value is recorded as “nanomolar”.

Turning to `Cc1cc(OCCN2CCOCC2)nn1-c1ccc2ccccc2c1.Cl` [P027, 4-[2-[[5-methyl-1-(2-naphthalenyl)-1H-pyrazol-3-yl]oxy]ethyl]morpholine hydrochloride], the “solubility in 1N hydrochloric acid” value in [1] (1N hydrochloric acid) is “freely soluble”. The “solubility in 1N sodium hydroxide” value in [1] (1N sodium hydroxide) is given as “practically insoluble”. Moreover, the solubility in acetone entry in data set [1] (acetone) was “slightly soluble”. Further, the “solubility in dimethyl sulphoxide” value in data set [1] (dimethyl sulphoxide) is “freely soluble”. Further, the solubility in ethanol result in [1] (ethanol) was “sparingly soluble”. Besides, in [1] (ethyl acetate), the “solubility in ethyl acetate” value is given as “practically insoluble”. In [1] (methanol), the solubility in methanol result is reported as “freely soluble”. Besides, the solubility in water entry in data set [1] (water) is “very soluble”. The “dissolution and absorption profile in vivo” value in data set [2] is “better dissolution and absorption profile in vivo than its related base”. Further, the solubility – broadly, how much of the substance goes into solution per volume – in data set [3] (organic solvent or mixture, 1,1,1-Trichloroethane, room temperature) is less than 1200 µg/mL; in [3] (organic solvent or mixture, 1,2-Dichloroethane, room temperature) it was 15000 to 25000 µg/mL; in [3] (organic solvent or mixture, 2-Butanol, solid was dissolved at 60° C., left at room temperature, no solid observed), 3000 to 4000 µg/mL; in data set [3] (organic solvent or mixture, 3-Pentanone, solid was dissolved at 80° C., left at room temperature, no solid observed), 1000 to 2000 µg/mL; in data set [3] (organic solvent or mixture, Acetone, room temperature), 4000 to 5000 µg/mL; in data set [3] (organic solvent or mixture, Acetonitrile, solid was dissolved at 60° C., left at room temperature, no solid observed), 10000 to 20000 µg/mL. Further, the solubility in [3] (organic solvent or mixture, Butyl amine, room temperature) is greater than 50000 µg/mL; in data set [3] (organic solvent or mixture, Chlorobenzene, room temperature), less than 1200 µg/mL; in data set [3] (organic solvent or mixture, Chloroform, room temperature) it was greater than 50000 µg/mL; in data set [3] (organic solvent or mixture, Cyclohexane, room temperature), less than 1200 µg/mL; in [3] (organic solvent or mixture, Dichloromethane, room temperature), greater than 50000 µg/mL; in data set [3] (organic solvent or mixture, Diethoxymethane, room temperature), less than 1200 µg/mL. Moreover, the solubility was less than 1200 µg/mL in [3] (organic solvent or mixture, Diisopropyl ether, room temperature); less than 1200 µg/mL in data set [3] (organic solvent or mixture, Dimethoxymethane, room temperature); 1000 to 2000 µg/mL in data set [3] (organic solvent or mixture, Dimethylcarbonate, solid was dissolved at 80° C., left at room temperature, no solid observed); greater than 50000 µg/mL in data set [3] (organic solvent or mixture, Dimethylformamide, room temperature); greater than 50000 µg/mL in data set [3] (organic solvent or mixture, Dimethylsulfoxide, room temperature); 1000 to 2000 µg/mL in data set [3] (organic solvent or mixture, Dioxane, solid was dissolved at 80° C., left at room temperature, no solid observed). In addition, the solubility in [3] (organic solvent or mixture, Ethanol, room temperature) was 15000 to 25000 µg/mL; in [3] (organic solvent or mixture, Ethyl acetate, room temperature), less than 1200 µg/mL; in data set [3] (organic solvent or mixture, Isobutyl acetate, room temperature), less than 1200 µg/mL; in [3] (organic solvent or mixture, Isopropanol, solid was dissolved at 60° C., left at room temperature, no solid observed), 4000 to 5000 µg/mL; in data set [3] (organic solvent or mixture, Isopropyl acetate, room temperature) it was less than 1200 µg/mL; in [3] (organic solvent or mixture, Methanol, room temperature) it was greater than 50000 µg/mL. In addition, the solubility in data set [3] (organic solvent or mixture, Methyl acetate, room temperature) is less than 1200 µg/mL; in data set [3] (organic solvent or mixture, Methyl ethyl ketone, solid was dissolved at 60° C., left at room temperature, no solid observed), 2000 to 4000 µg/mL; in data set [3] (organic solvent or mixture, Methyl isobutyl ketone, room temperature), less than 1200 µg/mL; in [3] (organic solvent or mixture, Methyl tert-butyl ether, room temperature), less than 1200 µg/mL; in data set [3] (organic solvent or mixture, N,N-Dimethylacetamide, room temperature) it was 25000 to 50000 µg/mL; in [3] (organic solvent or mixture, Nitromethane, room temperature), 25000 to 50000 µg/mL. Moreover, the solubility in data set [3] (organic solvent or mixture, Propyl acetate, room temperature) is less than 1200 µg/mL; in [3] (organic solvent or mixture, Pyridine, room temperature), 25000 to 50000 µg/mL; in [3] (organic solvent or mixture, Tetrahydrofuran, room temperature), less than 1200 µg/mL; in [3] (organic solvent or mixture, Toluene, room temperature), less than 1200 µg/mL; in data set [3] (organic solvent or mixture, Triethylamine, room temperature) it was less than 1200 µg/mL; in data set [3] (organic solvent or mixture, Xylene, room temperature), less than 1200 µg/mL. Moreover, the solubility in data set [3] (organic solvent or mixture, n-Butanol, solid was dissolved at 60° C., left at room temperature, no solid observed) is 5000 to 10000 µg/mL; in data set [3] (organic solvent or mixture, n-Heptane, room temperature) it was less than 1200 µg/mL; in data set [3] (organic solvent or mixture, n-Hexane, room temperature) it was less than 1200 µg/mL; in [3] (Water, room temperature) it was greater than 50000 µg/mL.

Take `Cc1cc(OCCN2CCOCC2)nn1-c1ccc2ccccc2c1` [4-[2-[[5-methyl-1-(2-naphthalenyl)-1H-pyrazol-3-yl]oxy]ethyl]morpholine]: the analgesic activity entry in data set [4] was “strong analgesic activity”. For the same compound, the “sigma-1 (σ-1) receptor antagonism, selectivity” value on sigma-1 (σ-1) receptor is on record as “highly selective sigma-1 (σ-1) receptor antagonist”.

Take `C1COCCO1.Cc1cc(OCCN2CCOCC2)nn1-c1ccc2ccccc2c1.Cl` [dioxane solvate, 4-[2-[[5-methyl-1-(2-naphthalenyl)-1H-pyrazol-3-yl]oxy]ethyl]morpholine hydrochloride solvate with dioxane]: the “solid form after drying (PXRD)” value in [5] is “transformation to Phase I was observed”.

In the case of `Cc1cc(OCCN2CCOCC2)nn1-c1ccc2ccccc2c1.Cl` [P027 phase I, 4-[2-[[5-methyl-1-(2-naphthalenyl)-1H-pyrazol-3-yl]oxy]ethyl]morpholine hydrochloride phase I crystalline form], the “phase stability under pressure (PXRD)” value in data set [6] (5, 7.5 and 10 tons for 5, 30 and 90 minutes) is on record as “stable under pressure”; in [6] (pressure of 30 tons for 90 minutes (FIG. 19)) it was “consistent with the standard phase I PXRD pattern demonstrating the phase stability”. For the same compound, the “phase stability after grinding (PXRD)” value is listed as “stable after grinding” in [7] (ball mill, three drops of solvent (Table 23), 30 s^-1 for 30 minutes) and “consistent with the standard phase I PXRD pattern demonstrating the phase stability” in data set [7] (grinding together with dichloromethane (FIG. 18)). The “stability of the salt (1H NMR)” value in data set [8] is listed as “no signs of the lost of HCl or decomposition”.
